Assay results: patent US10765662B2, “Mono- or di-substituted indole derivatives as dengue viral replication inhibitors” (Janssen Pharmaceuticals, Inc., priority 2015, dated 2020)
pEC50: −log10 of the molar value.

Key:
[1] = system: DENV-2 16681 strain labeled with enhanced green fluorescent protein; assay: DENV-2 antiviral assay (eGFP fluorescence read-out in Vero cells); format: cell-based, Dengue virus; details: DENV-2 16681 eGFP, MOI 0.5, 3 days
Method: The antiviral activity of all the compounds of the invention was tested against the DENV-2 16681 strain which was labeled with enhanced green fluorescent protein (eGPF). The culture medium consists of minimal essential medium supplemented with 2% of heat-inactivated fetal calf serum, 0.04% gentamycin (50 mg/mL) and 2 mM of L-glutamine. Vero cells, obtained from ECACC, were suspended in culture medium and 25 μL was added to 384-well plates (2500 cells/well), which already contain the antiviral compounds. Typically, these plates contain a 5-fold serial dilution of 9 dilution steps of the test compound at 200 times the final concentration in 100% DMSO (200 nL). […] Finally, each plate contains wells which are assigned as virus controls (containing cells and virus in the absence of compound), cell controls (containing cells in the absence of virus and compound) and medium controls (containing medium in the absence of cells, virus and compounds). To the wells assigned as medium control, 25 μL of culture medium was added instead of Vero cells. Once the cells were added to the plates, the plates were incubated for 30 minutes at room temperature to allow the cells to distribute evenly within the wells. Next, the plates were incubated in a fully humidified incubator (37° C., 5% CO2) until the next day. Then, DENV-2 strain 16681, labeled with eGFP, was added at a multiplicity of infection (MOI) of 0.5. Therefore, 15 μL of virus suspension was added to all the wells containing test compound and to the wells assigned as virus control. In parallel, 15 μL of culture medium was added to the medium and cell controls. Next, the plates were incubated for 3 days in a fully humidified incubator (37° C., 5% CO2). At the day of the read out, the eGFP fluorescence was measured using an automated fluorescence microscope at 488 nm (blue laser). Using an in-house LIMS system, inhibition dose response curves for each compound were calculated and the half maximal effective concentration (EC50) was determined. Therefore, the percent inhibition (I) for every test concentration is calculated using the following formula: I=100*([…])/(SVC−SCC); ST, SCC and SVC are the amount of eGFP signal in the test compound, cell control and virus control wells, respectively. The EC50 represents the concentration of a compound at which the virus replication is inhibited with 50%, as measured by a 50% reduction of the eGFP fluorescent intensity compared to the virus control. The EC50 is calculated using linear interpolation (Table 1).

[2] = in vitro; format: cell-based; details: African green monkey, CC50
Method: (§1) In parallel, the toxicity of the compounds was assessed on the same plates. Once the read-out for the eGFP signal was done, 40 μL of ATPlite, a cell viability stain, was added to all wells of the 384-well plates. ATP is present in all metabolically active cells and the concentration declines very rapidly when the cells undergo necrosis or apoptosis. The ATPLite assay system is based on the production of light caused by the reaction of ATP with added luciferase and D-luciferin. The plates were incubated for 10 minutes at room temperature. Next, the plates were measured on a ViewLux. The half maximal cytotoxic concentration (CC50) was also determined, defined as the concentration required to reduce the luminescent signal by 50% compared to that of the cell control wells. Finally, the selectivity index (SI) was determined for the compounds, which was calculated as followed: SI=CC50/EC50.

[3] = system: Vero cells; assay: in vitro; format: cell-based; details: African green monkey
Method: as §1

[4] = system: DENV-1 strain TC974#666; assay: Tetravalent RT-qPCR assay Protocol A, serotype 1; format: cell-based; details: Dengue virus, DENV1, 72 h; RT-qPCR serotype 1 TC974#666, Vero cells, day 3
Method: (§2) The antiviral activity of the compounds of the invention was tested against DENV-1 strain TC974#666 (NCPV), DENV-2 strain 16681, DENV-3 strain H87 (NCPV) and DENV-4 strains H241 (NCPV) and EDEN (SG/06K2270DK1/2005; GenBank accession number QG398256) in a RT-qPCR assay. Therefore, Vero cells were infected with either DENV-1, or -2, or -3, or -4 in the presence or absence of test compounds. At day 3 post-infection, the cells were lysed and cell lysates were used to prepare cDNA of both a viral target (the 3′UTR of DENV; Table 2) and a cellular reference gene (β-actin, Table 2). Subsequently, a duplex real time PCR was performed on a Lightcycler480 instrument. The generated Cp value is inversely proportional to the amount of RNA expression of these targets. Inhibition of DENV replication by a test compound results in a shift of Cp's for the 3′UTR gene. On the other hand, if a test compound is toxic to the cells, a similar effect on β-actin expression will be observed. The comparative ΔΔCp method is used to calculate EC50, which is based on the relative gene expression of the target gene (3′UTR) normalized with the cellular housekeeping gene (β-actin). In addition, CC50 values are determined based on the Cp values acquired for the housekeeping gene β-actin.
(§3) The culture medium consisted of minimal essential medium supplemented with 2% of heat-inactivated fetal calf serum, 0.04% gentamycin (50 mg/mL) and 2 mM of L-glutamine. Vero cells, obtained from ECACC, were suspended in culture medium and 75 μL/well was added in 96-well plates (10000 cells/well), which already contain the antiviral compounds. […] In addition, each plate contains wells which are assigned as virus controls (containing cells and virus in the absence of compound) and cell controls (containing cells in the absence of virus and compound). Once the cells were added in the plates, the plates were incubated in a fully humidified incubator (37° C., 5% CO2) until the next day. Dengue viruses serotype-1, 2, 3 and 4 were diluted in order to obtain a Cp of ˜22-24 in the assay. Therefore, 25 μL of virus suspension, was added to all the wells containing test compound and to the wells assigned as virus control. In parallel, 25 μL of culture medium was added to the cell controls. Next, the plates were incubated for 3 days in a fully humidified incubator (37° C., 5% CO2). After 3 days, the supernatant was removed from the wells and the cells were washed twice with ice-cold PBS (˜100 μL). The cell pellets within the 96-well plates were stored at −80° C. for at least 1 day. Next, RNA was extracted using the Cells-to-CT™ lysis kit, according to the manufacturer's guideline (Life Technologies). The cell lysates can be stored at −80° C. or immediately used in the reverse transcription step.
(§4) In preparation of the reverse transcription step, mix A (table 3A) was prepared and 7.57 μL/well was dispensed in a 96-well plate. After addition of 5 μL of the cell lysates, a five minute denaturation step at 75° C. was performed (table 3B). Afterwards, 7.43 μL of mix B was added (table 3C) and the reverse transcription step was initiated (table 3D) to generate cDNA.
(§5) Finally, a RT-qPCR mix was prepared, mix C (table 4A), and 22.02 μL/well was dispensed in 96-well LightCycler qPCR plates to which 3 μL of cDNA was added and the qPCR was performed according to the conditions in table 4B on a LightCycler 480.
(§6) Using the LightCycler software and an in-house LIMS system, dose response curves for each compound were calculated and the half maximal effective concentration (EC50) and the half maximal cytotoxic concentration (CC50) were determined (Tables 5-8).

[5] = system: DENV-2 strain 16681; assay: Tetravalent RT-qPCR assay Protocol A, serotype 2; format: cell-based; details: Dengue virus, DENV2, 72 h; RT-qPCR serotype 2 16681, Vero cells, day 3
Method: as §2, §3, §4, §5, §6

[6] = system: DENV-3 strain H87; assay: Tetravalent RT-qPCR assay Protocol A, serotype 3; format: cell-based; details: Dengue virus, DENV3, 72 h; RT-qPCR serotype 3 H87, Vero cells, day 3
Method: as §2, §3, §4, §5, §6

[7] = system: DENV-4 strain H241; assay: Tetravalent RT-qPCR assay Protocol A, serotype 4 H241; format: cell-based; details: Dengue virus, DENV4, Vero, 72 h
Method: as §2, §3, §4, §5, §6

[8] = in vitro; format: cell-based; details: African green monkey
Method: as §2, §3, §6

[9] = Dengue virus, DENV2, Vero, 72 h

Compound | pEC50 [1, 9] | CC50 [2] | melting point | pEC50 [1] | CC50 [3] | pEC50 [4] | pEC50 [5] | pEC50 [6] | pEC50 [7] | CC50 at 3 days [8]
COc1cc(NC(C(=O)c2c[nH]c3cc(Cl)ccc23)c2ccc(Cl)cc2OCCO)cc(S(C)(=O)=O)c1 (racemic) [Compound 2, 1-(6-chloro-1H-indol-3-yl)-2-(4-chloro-2-(2-hydroxyethoxy)phenyl)-2-((3-methoxy-5-(methylsulfonyl)phenyl)amino)ethanone] | 9.57 | 4200 nM | 121 °C | – | – | – | – | – | – | –
COc1cc(NC(C(=O)c2c[nH]c3cc(OC)ccc23)c2ccc(Cl)cc2OCCO)cc(S(C)(=O)=O)c1 (racemic) [Compound 3, 2-(4-chloro-2-(2-hydroxyethoxy)phenyl)-1-(6-methoxy-1H-indol-3-yl)-2-((3-methoxy-5-(methylsulfonyl)phenyl)amino)ethanone] | 9.27 | 12000 nM | 149 °C | – | – | – | – | – | – | –
COc1cc(NC(C(=O)c2c[nH]c3c(C)c(F)ccc23)c2ccc(Cl)cc2OCCO)cc(S(C)(=O)=O)c1 (racemic) [Compound 4, 2-(4-chloro-2-(2-hydroxyethoxy)phenyl)-1-(6-fluoro-7-methyl-1H-indol-3-yl)-2-((3-methoxy-5-(methylsulfonyl)phenyl)amino)ethanone] | 9.38 | 3700 nM | 173 °C | – | – | – | – | – | – | –
COc1cc(NC(C(=O)c2c[nH]c3cc(F)ccc23)c2ccc(Cl)cc2OCCO)cc(S(C)(=O)=O)c1 (single isomer, unassigned) [Compound 1A, 2-(4-chloro-2-(2-hydroxyethoxy)phenyl)-1-(6-fluoro-1H-indol-3-yl)-2-((3-methoxy-5-(methylsulfonyl)phenyl)amino)ethanone] | – | – | – | 9.62 | 3700 nM | 8.89 | 9.62 | 8.02 | 7.15 | > 2500 nM
COc1cc(NC(C(=O)c2c[nH]c3cc(F)c(C)cc23)c2ccc(Cl)cc2OCCO)cc(S(C)(=O)=O)c1 (single isomer, unassigned) [Compound 8A, 2-(4-chloro-2-(2-hydroxyethoxy)phenyl)-1-(6-fluoro-5-methyl-1H-indol-3-yl)-2-((3-methoxy-5-(methylsulfonyl)phenyl)amino)ethanone] | – | > 2500 nM | – | 9.96 | – | 9.41 | 9.57 | 8.38 | 7.44 | –
COc1cc(NC(C(=O)c2c[nH]c3ccc(C(F)(F)F)cc23)c2ccc(Cl)cc2OCCO)cc(S(C)(=O)=O)c1 (single isomer, unassigned) [Compound 9B, 2-(4-chloro-2-(2-hydroxyethoxy)phenyl)-2-((3-methoxy-5-(methylsulfonyl)phenyl)amino)-1-(5-(trifluoromethyl)-1H-indol-3-yl)ethanone] | – | – | – | 10.21 | > 2400 nM | 10.08 | 10.27 | 8.92 | 8.09 | 2900 nM
COc1cc(NC(C(=O)c2c[nH]c3ccc(OC(F)(F)F)cc23)c2ccc(Cl)cc2OCCO)cc(S(C)(=O)=O)c1 (single isomer, unassigned) [Compound 10B, 2-(4-chloro-2-(2-hydroxyethoxy)phenyl)-2-((3-methoxy-5-(methylsulfonyl)phenyl)amino)-1-(5-(trifluoromethoxy)-1H-indol-3-yl)ethanone] | – | – | – | 10.17 | 2400 nM | 10.15 | 10.31 | 8.85 | 8.16 | > 2400 nM
COc1cc(NC(C(=O)c2c[nH]c3cc(OC)c(OC(F)(F)F)cc23)c2ccc(Cl)cc2OCCO)cc(S(C)(=O)=O)c1 (single isomer, unassigned) [Compound 11B, 2-(4-chloro-2-(2-hydroxyethoxy)phenyl)-2-((3-methoxy-5-(methylsulfonyl)phenyl)amino)-1-(6-methoxy-5-(trifluoromethoxy)-1H-indol-3-yl)ethanone] | – | – | – | 10.05 | > 2300 nM | 9.92 | 10.21 | 8.89 | 7.96 | > 2500 nM
COc1cc(NC(C(=O)c2c[nH]c3c(C)cc(OC(F)(F)F)cc23)c2ccc(Cl)cc2OCCO)cc(S(C)(=O)=O)c1 (single isomer, unassigned) [Compound 12B, 2-(4-chloro-2-(2-hydroxyethoxy)phenyl)-2-((3-methoxy-5-(methylsulfonyl)phenyl)amino)-1-(7-methyl-5-(trifluoromethoxy)-1H-indol-3-yl)ethanone] | – | – | – | 10.47 | – | 10.07 | 10.28 | 8.96 | 8.26 | > 2300 nM
